# What was measured:
# lymphangiogenesis = conditions: experimental mouse lymphedema models; cited from earlier work
# A2780 = conditions: cited from earlier work
# K562 = conditions: cited from earlier work
# Plasmodium = conditions: cited from earlier work
# fungi = conditions: cited from earlier work
# LEC = experiment: Sprouting assay (LEC-coated microcarriers in collagen); assay type: cell-based, human; conditions: 24 hours
# Procedure: To investigate cell sprouting, cytodex microcarriers were coated with LECs (Schulz et al. (2012) Phenotype-based high-content chemical library screening identifies statins as inhibitors of in vivo lymphangiogenesis. Proc Natl Acad Sci USA 109, E2665-2674). Then, the microcarriers were embedded in a collagen solution and media containing 0.1% DMSO, 20 ng/ml VEGF-A, or different concentrations of the IG extract, its subfractions or iridals were added for 24 hours. The induced sprouts were imaged at 4× magnification (Molecular Devices ImageXpress Micro HCS microscope MD2, Photometrics CoolSNAP HQ camera, Photometrics, Tucson, AZ, USA). Image analysis was performed using ImageJ64 and the number of sprouts per microcarrier was counted and plotted. Three replicates per condition were performed.
# [1] = tested on: guinea pig mesenteric lymphatic vessels; experiment: Ex vivo lymphatic contractility assay
# From the text: Guinea pigs (7-15 days of age) were killed by decapitation during deep anaesthesia induced by inhalation of isoflurane. The small intestine with its attached mesentery was rapidly dissected and placed in a physiological saline solution (PSS) of the following composition (mM): CaCl2, 2.5; KCl, 5; MgCl2, 2; NaCl, 120; NaHCO3, 25; NaH2PO4, 1; glucose, 11. The pH was maintained at 7.4 by constant bubbling with 95% O2/5% CO2. […]
# The organ bath was then mounted on the stage of an inverted microscope and continuously superfused at a flow rate of 3 ml/min with PSS heated to 36° C. […] A custom-written MatLab program detected vessel diameter changes on the video image and recorded them as a function of time, allowing measurement of frequency and amplitude of contractions. Decreases in vessel diameter greater than 50% of the diastolic diameter were counted as contractions. Preparations were allowed a 30 min equilibration period prior to drug application during which pumping was assessed. […] A 5 min control period of contractile activity was recorded prior to a 1 to 5 min application of iripallidal and effects on vessel contraction frequency were assessed during the ten subsequent minutes.
# [2] = tested on: cytochrome P450 1A isoenzyme; conditions: cited from earlier work
compound,measurement,setting,value
CC1=C(/C=C/C(C)=C\C=C\C(C)=C\C(=O)O)C(C)(C)CCC1 [9-cis retinoic acid],lymphangiogenesis,lymphangiogenesis,promote lymphangiogenesis
CC(C)=CCC/C(C)=C/CC/C(C)=C/CC[C@@]1(C)[C@H](CCCO)/C(=C(/C)C=O)CC[C@]1(C)O [Iridal],activity on human tumor cell line,A2780,interesting activity on two human tumor cell lines
same,activity on human tumor cell line,K562,interesting activity on two human tumor cell lines
same,antiplasmodial activity,Plasmodium,antiplasmodial activity
same,antifungal activity,fungi,no antifungal activity
CC(C)=CCC/C(C)=C/CC(O)/C(C)=C/CC[C@@]1(C)[C@H](CCCO)/C(=C(\C)C=O)CC[C@]1(C)O (some centres unmarked) [Iridobelamal A],Minimal effective concentration in sprouting assay,LEC,3 µM
C=C1CC[C@H](C)C(C)(C)[C@@H]1/C=C/C(C)=C/CC[C@@]1(CO)[C@H](CCCO)/C(=C(/C)C=O)CC[C@]1(C)O [Iriflorental],Minimal effective concentration in sprouting assay,LEC,0.03 µM
CC1=CC[C@H](C)C(C)(C)[C@@H]1/C=C/C(C)=C/CC[C@@]1(CO)[C@H](CCCO)/C(=C(/C)C=O)CC[C@]1(C)O [Iripallidal],Minimal effective concentration in sprouting assay,LEC,0.03 µM
same,"vessels with small, but significant increase in contraction frequency",[1]; 10 μM,5 out of 6
same,"vessels with small, but significant increase in contraction frequency",[1]; 30 μM (data not shown),4 out of 4
COc1cc(-c2coc3cc(O)c(OC)c(O)c3c2=O)cc(O)c1OC [irigenin],inhibition of cytochrome P450 1A isoenzyme,[2],potent inhibitors
O=c1c(-c2ccc(O)cc2)coc2cc3c(c(O)c12)OCO3 [irilone],inhibition of cytochrome P450 1A isoenzyme,[2],potent inhibitors
C=C1CC[C@H](C)C(C)(C)[C@@H]1CC/C(C)=C/CC[C@@]1(C)[C@H](CCCO)/C(=C(/C)C=O)CC[C@]1(C)O [γ-irigermanal],Minimal effective concentration in sprouting assay,LEC,0.01 µM
Cis isomer of α-dehydroirigermanal,Minimal effective concentration in sprouting assay,LEC,0.01 µM
Irigermanone,Minimal effective concentration in sprouting assay,LEC,10 µM
Irisgermanical C,Minimal effective concentration in sprouting assay,LEC,1 µM
iriflogenin,inhibition of cytochrome P450 1A isoenzyme,[2],potent inhibitors

# From US11992467B2, “Promotion of lymphatic function” (Universitaet Basel, priority 2014, dated 2024)
